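Compound exposure: 48 hours, 5 concentrations, 96-well plates. The concentration for 50% growth inhibition is given as GI50. Definition used: TGI = concentration required for complete inhibition of growth.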
What was measured:
Experiment in all cases: NCI anticancer screen, dose series, 48 h
[1] = test system: UACC-257 melanoma
[2] = test system: UO-31 renal
[3] = test system: NCI-H522 lung
[4] = test system: HL-60(TB) leukemia
[5] = test system: MOLT-4 leukemia
[6] = test system: HOP-92 NSCLC
[7] = test system: KM20L2 colon
[8] = test system: OVCAR-8 ovarian
[9] = test system: CAKI-1 renal
[10] = test system: SF-268 CNS
[11] = test system: EKVX NSCLC
[12] = test system: SF-295 CNS
[13] = test system: M14 melanoma
[14] = test system: SNB-19 CNS
[15] = test system: RXF 393 renal
[16] = test system: ACHN renal
[17] = test system: U251 CNS
[18] = test system: SN12C renal
[19] = test system: OVCAR-3 ovarian
[20] = test system: SF-539 CNS
[21] = test system: A498 renal
[22] = test system: COLO 205 colon
[23] = test system: SW-620 colon
[24] = test system: KM12 colon
[25] = test system: NCI-H226 lung
[26] = test system: HCT-15 colon
[27] = test system: HCT-116 colon
[28] = test system: RPMI-8226 leukemia
[29] = test system: SNB-75 CNS
[30] = test system: UACC-62 melanoma
[31] = test system: IGROV1 ovarian
[32] = test system: HT29 colon
[33] = test system: OVCAR-4 ovarian
[34] = test system: HOP-18 NSCLC
[35] = test system: LOX IMVI melanoma
[36] = test system: NCI-H460 lung
[37] = test system: SK-MEL-28 melanoma
[38] = test system: K-562 leukemia
[39] = test system: SK-MEL-5 melanoma
[40] = test system: OVCAR-5 ovarian
[41] = test system: A549 NSCLC
[42] = test system: TK-10 renal
[43] = test system: SK-OV-3 ovarian
[44] = test system: NCI-H23 lung

Molecule `O=C([CH-]C(=O)c1ccccc1)c1ccccc1.O=C([CH-]C(=O)c1ccccc1)c1ccccc1.O=C([CH-]C(=O)c1ccccc1)c1ccccc1.[Cl-].[Hf+4]` has a GI50 [1] of 22.2 µM, a TGI [1] of 69.5 µM and a GI50 [2] of 26.8 µM. For the same molecule, the TGI [2] was 96.9 µM, the GI50 [3] was 12.6 µM and the TGI [3] was 62.8 µM. For the same molecule, the GI50 [4] was 18.1 µM, the TGI [4] was > 100 µM and the GI50 [5] was 11.1 µM. For the same molecule, the TGI [5] was > 100 µM, the GI50 [6] was 10.9 µM and the TGI [6] was 36.1 µM. For the same molecule, the GI50 [7] was 34.2 µM, the TGI [7] was > 100 µM and the GI50 [8] was 11.5 µM. It also gave a TGI [8] of 77.7 µM, a GI50 [9] of 14.2 µM and a TGI [9] of 52.4 µM. For the same molecule, the GI50 [10] was 26.4 µM, the TGI [10] was > 100 µM and the GI50 [11] was 24.8 µM. For the same molecule, the TGI [11] was 77.2 µM, the GI50 [12] was 14.9 µM and the TGI [12] was > 100 µM. For the same molecule, the GI50 [13] was 13.5 µM, the TGI [13] was 32.9 µM and the GI50 [14] was 14.1 µM. The TGI [14] was > 100 µM, the GI50 [15] was 7.68 µM and the TGI [15] was 23.2 µM. The GI50 [16] was 33.9 µM, the TGI [16] was > 100 µM and the GI50 [17] was 19.1 µM. For the same molecule, the TGI [17] was > 100 µM, the GI50 [18] was 41.3 µM and the TGI [18] was > 100 µM. For the same molecule, the GI50 [19] was 15.2 µM, the TGI [19] was > 100 µM and the GI50 [20] was 17.2 µM. It also gave a TGI [20] of 41.8 µM, a GI50 [21] of 18.6 µM and a TGI [21] of 63 µM. For the same molecule, the GI50 [22] was 23.9 µM, the TGI [22] was > 100 µM and the GI50 [23] was 10.8 µM. For the same molecule, the TGI [23] was > 100 µM, the GI50 [24] was 21.1 µM and the TGI [24] was > 100 µM. The GI50 [25] was 13 µM, the TGI [25] was 54 µM and the GI50 [26] was 12.5 µM. For the same molecule, the TGI [26] was > 100 µM, the GI50 [27] was 7.33 µM and the TGI [27] was 26.1 µM. It also gave a GI50 [28] of 13.5 µM, a TGI [28] of 82.1 µM and a GI50 [29] of 9.43 µM. The TGI [29] was > 100 µM, the GI50 [30] was 14.6 µM and the TGI [30] was > 100 µM. The GI50 [31] was 33.3 µM, the TGI [31] was > 100 µM and the GI50 [32] was 33.9 µM. For the same molecule, the TGI [32] was > 100 µM, the GI50 [33] was 14.6 µM and the TGI [33] was > 100 µM. The GI50 [34] was 5.66 µM, the TGI [34] was 24.8 µM and the GI50 [35] was 23.3 µM. For the same molecule, the TGI [35] was > 100 µM, the GI50 [36] was 13.1 µM and the TGI [36] was 67.7 µM. For the same molecule, the GI50 [37] was 20.3 µM, the TGI [37] was 82.5 µM and the GI50 [38] was 7.11 µM. For the same molecule, the TGI [38] was > 100 µM, the GI50 [39] was 11.1 µM and the TGI [39] was 31.5 µM. The GI50 [40] was 30.8 µM, the TGI [40] was > 100 µM and the GI50 [41] was 16.7 µM. The TGI [41] was 86.2 µM, the GI50 [42] was 18.7 µM and the TGI [42] was 53.8 µM. The GI50 [43] was 22.7 µM, the TGI [43] was 62.3 µM and the GI50 [44] was 15.8 µM. The TGI [44] was 83.4 µM.

— PubChem BioAssay (NCI)
